The values below come from paper PMC5108032, “Discovery of a Quinoline-4-carboxamide Derivative with a Novel Mechanism of Action, Multistage Antimalarial Activity, and Potent in Vivo Efficacy” (Journal of Medicinal Chemistry, 2016).

Format in all cases: in vitro ADME
Series [1] in a line: Intrinsic clearance (Cli) in mouse liver microsomes. The note with it: mouse liver microsome. From the text:
(§1) inhibition at top, C= EC50, D= slope, x= inhibitor concentration and y= % inhibition. […]
(§2) reach 100% of inhibition, B was fixed to 100 only when at least 50% of inhibition was reached.
(§3) Plasmodium falciparum late stage (IV-V) gametocyte high content imaging assay Plasmodium falciparum NF54-pfs16-LUC-GFP stage IV-V Gametocytes were produced as described previously.5 Compounds were solubilized in DMSO and serially diluted in three concentrations per log standard curves in DM SO. One µl of compound was subsequently diluted in 25µl of water (4% DMSO) and 5µl transferred into the base of 384 well PerkinElmer CellCarrier plates. Forty-five µl of stage IV-V gametocytes (10%P in 0.1%H) were added to the imaging plates which were in turn sealed with a gas permeable membrane and incubated at 37°C, 5% CO 2, 5% O2, 90% N2 and 60% humidity […]
(§4) Post incubation, 5µl of MitoTracker® Red CM -H2Xros (MTR) solution (0.66ug/ml) was added to all wells and the plates incubated for a further 16hours. The assay plates were then imaged and the number of viable gametocytes determined for test compounds plus 0.4%DMSO and 5µM Puromycin.
(§5) (0.4%DMSO) control values. Percent inhibition was plotted against log compound concentration using a 4 parameter log dose, non-linear regression analysis, with sigmoidal dose response (variable slope) curve fit using Prizm 4.0. IC50 values were obtained from this curve fit. The compound testing was performed in duplicate point within two separate experiments.
(§6) Plasmodium berghei ookinete development assay
(§7) Assay was performed as previously reported.6 Briefly blood containing P. berghei CTRPp-GFP gametocytes was rapidly harvested from infected mice and introduced to test compounds pre-diluted in ookinete medium (to induce gamete formation and support ookinete development) in 96-well plates. Plates were incubated in the dark at 21°C for 22 hr before GFP fluorescence intensity measured in a plate reader. % inhibition of ookinete formation was calculated with reference to the fluorescence intensity values of a positive control (20 µM cycloheximide) and a solvent-only negative control (DMSO). All assays were performed in triplicate independent experiments and EC50 values calculated in Graphpad Prism.
(§8) The aqueous solubility of the test compounds was measured using laser nephelometry, as described previously.7 Compounds were subject to serial dilution from 10 mg/mL to 0.5 mg/mL in DMSO. An aliquot was then mixed with MilliQ water to obtain an aqueous dilution plate with a final concentration range of 100 – 5 μg/mL, with a final DMSO concentration of 1.0%. Triplicate aliquots were transferred to a flat bottomed polystyrene plate which was immediately read on the NEPHELOstar (BMG Lab Technologies). The amount of laser scatter caused by insoluble particulates (relative nephelometry units, RNU) was plotted against compound concentration using a segmental regression fit, with the point of inflection being quoted as the compounds aqueous solubility (μg/mL; […]
(§9) Intrinsic Clearance (Cli) experiments
(§10) The procedure was carried out as reported previously.7 Test compound (0.5 µM) was incubated with female CD1 mouse, male sprague-dawley rat or pooled human mixed gender liver microsomes (Xenotech LLC TM; 0.5 mg/mL 50 mM potassium phosphate buffer, pH 7.4) and the reaction initiated […]
(§11) by the addition of excess NADPH (8 mg/mL 50 mM potassium phosphate buffer, pH 7.4).
(§12) Immediately, at time zero, then at 3, 6, 9, 15 and 30 min an aliquot (50 μL) of the incubation mixture was removed and mixed with acetonitrile (100 μL) to stop the reaction. Internal standard was added to all samples, the samples centrifuged to sediment precipitated protein and the plates then sealed prior to UPLC-MS/MS analysis using a Quattro Premier XE (Waters Corporation, USA).
XLfit (IDBS, UK) was used to calculate the exponential decay and consequently the rate constant (k) from the ratio of peak area of test compound to internal standard at each timepoint. The rate of […]

The nature of series [2]: Plasma protein binding (equilibrium dialysis). As to conditions: female, NMRI; mouse plasma protein binding; read-out: PPB (converted). How it is done: as §11, §12
XLfit (IDBS, UK) was used to calculate the exponential decay and consequently the rate constant (k) from the ratio of peak area of test compound to internal standard at each timepoint. The rate of intrinsic clearance (CLi) of each test compound was then calculated using the following calculation:
CLi (mL/min/g liver) = k x V x Microsomal protein yield
Where V (mL/mg protein) is the incubation volume/mg protein added and microsomal protein yield is taken as 52.5 mg protein per g liver. Verapamil (0.5 µM) was used as a positive control to confirm acceptable assay performance. Experiments were performed using a single time-course experiment.
Plasma Protein Binding (PPB) experiments
This was based on a previously described method, with the exception that NMRI mouse plasma was used here.8 In brief, a 96 well equilibrium dialysis apparatus was used to determine the free fraction in plasma for each compound (HT Dialysis LLC, Gales Ferry, CT). Membranes (12-14 kDA cut-off) were conditioned in deionised water for 60 min, followed by conditioning in 80:20 deionised water:ethanol for 20 min, and then rinsed in isotonic buffer before use. Female CD1 mouse plasma was removed from the freezer and allowed to thaw on the day of experiment. Thawed plasma was then centrifuged (Allegra X12-R, Beckman Coulter, USA), spiked with test compound (final concentration 10 μg/mL), and 150 μL aliquots (n=6 replicate determinations) loaded into the 96-well equilibrium dialysis plate. Dialysis against isotonic buffer (150 µL) was carried out for 5 h in a temperature controlled incubator at ~37 °C (Barworld scientific Ltd, UK) using an orbital microplate shaker at 100 revolutions/minute (Barworld Scientific Ltd, UK). At the end of the incubation period, 50 μL aliquots of plasma or buffer were transferred to micronic tubes (Micronic B.V., the Netherlands) and the composition in each tube balanced with control fluid (50 μL), such that the volume of buffer to plasma is the same. Sample extraction was performed by the addition of 200 µL of acetonitrile containing an appropriate internal standard. Samples were allowed to mix for 1 min and then centrifuged at 3000 rpm in 96-well blocks for 15 min (Allegra X12-R, Beckman Coulter, USA) after which 150 μL of supernatant was removed to 50 μL of water. All samples were analysed by UPLC-MS/MS on a Quattro Premier XE Mass Spectrometer (Waters Corporation, USA). The unbound fraction was determined as the ratio of the peak area in buffer to that in plasma. Experiments […]
Parallel Artificial Membrane Permeability Assay (PAMPA)
PAMPA was performed using a 96-well pre-coated BD Gentest™ PAMPA plate (BD Biosciences, U.K.). Each well was divided into two chambers; donor and acceptor, separated by a lipid-oil-lipid tri-layer constructed in a porous filter. The effective permeability, Pe, of the compound was measured at pH 7.4. Stock solutions (5 mM) of the compound were prepared in DMSO. The compound was then further diluted to 10 µM in phosphate buffered saline at pH 7.4. […]

A short description of series [3]: Intrinsic clearance (Cli) in rat liver microsomes. As to conditions: rat liver microsome.
Source text: as §1, §2, §3, §4, §5, §6, §7, §8, §9, §10
by the addition of excess NADPH (8 mg/mL 50 mM potassium phosphate buffer, pH 7.4). […]

Molecules are shown by their SMILES.

For the compound `O=C(NCCN1CCCC1)c1cc(NCCCN2CCOCC2)nc2ccc(F)cc12` [Compound 25, 6-Fluoro-2-((3-morpholinopropyl)amino)-N-(2-(pyrrolidin-1-yl)ethyl)quinoline-4-carboxamide], the “MLM Cli” value in series [1] came out at 0.8 mL min^–1 g^–1. Also, the fraction unbound at 5 h, 10 μg/mL in series [2] was 0.41. In series [3], the “RLM Cli” value is <0.5 mL min^–1 g^–1.
Consider `O=C(NCCN1CCCC1)c1cc(NCCCCN2CCOCC2)nc2ccc(Cl)cc12` [Compound 27, 6-Chloro-2-((4-morpholinobutyl)amino)-N-(2-(pyrrolidin-1-yl)ethyl)quinoline-4-carboxamide], for which the “MLM Cli” value in series [1] is listed as 2.0 mL min^–1 g^–1. The fraction unbound at 5 h, 10 μg/mL in series [2] was 0.51.
As for `O=C(NCCN1CCCC1)c1cc(NCCC2CCOCC2)nc2ccc(Cl)cc12` [Compound 30, 6-Chloro-N-(2-(pyrrolidin-1-yl)ethyl)-2-((2-(tetrahydro-2H-pyran-4-yl)ethyl)amino)quinoline-4-carboxamide], the “MLM Cli” value in series [1] is on record as 2 mL min^–1 g^–1. Besides, the fraction unbound at 5 h, 10 μg/mL in series [2] was 0.23. Further, the “RLM Cli” value in series [3] is 0.8 mL min^–1 g^–1.
Consider `O=C(NCCN1CCCC1)c1cc(-c2ccc(S(=O)(=O)N3CCOCC3)cc2)nc2ccc(F)cc12` [Compound 38, 6-Fluoro-2-(4-(morpholinosulfonyl)phenyl)-N-(2-(pyrrolidin-1-yl)ethyl)quinoline-4-carboxamide], for which the “MLM Cli” value in series [1] is on record as 1.9 mL min^–1 g^–1. Moreover, in series [2], the fraction unbound at 5 h, 10 μg/mL is 0.25.
In the case of `O=C(NCCN1CCCC1)c1cc(-c2ccc(CN3CCOCC3)cc2F)nc2ccc(F)cc12` [Compound 41], the “MLM Cli” value in series [1] is <0.5 mL min^–1 g^–1. Further, in series [3], the “RLM Cli” value is given as <0.5 mL min^–1 g^–1.
`O=C(NCCN1CCCC1)c1cc(-c2ccc(CN3CCOCC3)cc2Cl)nc2ccc(F)cc12` [Compound 42, 2-(2-Chloro-4-(morpholinomethyl)phenyl)-6-fluoro-N-(2-(pyrrolidin-1-yl)ethyl)quinoline-4-carboxamide]: the “MLM Cli” value in series [1] is 0.5 mL min^–1 g^–1. Moreover, the fraction unbound at 5 h, 10 μg/mL in series [2] was 0.44.
